Measured values as given in patent US20070071773A1, “Compositions and methods for the treatment and prophylaxis of infections caused by gram positive bacteria” (priority 2002, published 2007).

Experiments:
GAS strain JS95 [1] = test: Bacterial growth inhibition (disks on blood-agar plate; THY medium); format: cell-based, Group A Streptococcus (GAS)
Procedure: One thousands to 1500 CFU of GAS strain JS95 were spread on the surface of a blood-agar plate, incubated at room temperature and disks with different concentrations of antibiotic (control) or peptide (25, 50 and 200 μg) were placed on the surface. The plates were incubated at 37° C. for 16 hours. Areas with no hemolysis (N. hemo.) indicate inhibition of GAS growth by antibiotics. Area with hemolysis (hemo.) indicates GAS growth in the presence of 200 μg of the peptide.
The inventors next examined whether the 17 amino acid peptide of the invention protects mice challenged with highly virulent strains by inhibition of bacterial growth. Different concentrations (1000-1500 CFU) of GAS strain JS95 were spread on the surface of a blood-agar plate and incubated at room temperature. Disks loaded with different concentrations of antibiotics (control) or peptide (25, 50 and 200 μg) were placed on the surface. […] 178:6087-6090 (1996); Havarstein, et al. J. Bacteriol. 179:6586-6584 (1997)] it is plausible that the peptide acts on a TCS. This in turn activates a signal transduction process in the bacteria leading to attenuation of virulence.

M3 strain = test: Murine NF model: lesions after challenge with an M3 strain; format: in vivo, Group A Streptococcus (GAS); conditions: SilCR injected together with an M3 strain (data not shown)
[2] = test system: serotype M14, M1 and M3 strains; test: Neutrophil recruitment in mice challenged with different GAS serotypes; format: in vivo, Group A Streptococcus (GAS)
From the text: The absence (M1 and M3) or mutation (M14) of the gene encoding the SilCR pheromone in those GAS strains may eliminate a counter-regulatory mean to a GAS chemokine proteolysis, resulting in an increased virulence potential for invasive soft tissue infections.

C5a peptidase = test: Surface expressed C5a peptidase of GAS in the absence and presence of SilCR; format: cell-based, Group A Streptococcus (GAS); conditions: absence vs presence of SilCR (not shown)
GAS M1 strain 340 = test: Murine NF model: lesions after challenge with M1 strain 340; format: in vivo, Group A Streptococcus (GAS); conditions: co-injection of SilCR (50 μg, 90% purified) with 10^8 CFU M1 strain 340; FIG. 16C
Procedure: 16C. mice infected with 10^8 CFU of M1 strain 340+SilCR (50 μg 90% purified) 48 h after inoculation.
(§1) The ability of GAS to cause lethal infection in ten-gram BALB/c female mice (Harlan Laboratories, Jerusalem, Israel) was assessed as described before [Ravins, M. et al. J. Infect. Dis. 182:1702-11 (2000)]. Briefly, 10^8 CFU of log-phase bacteria were washed twice in PBS, resuspended in 0.1 ml PBS and injected subcutaneously into the back of a mouse. The number of CFU injected was verified for each experiment by plating bacteria on THY-blood agar plates and counting. Each group contained 8 to 10 mice that were observed daily for death and changes in the lesions' properties such as size and depth, or were sacrificed at different times after inoculation for histopathological assessment. To determine the presence of bacteria in skin and spleen, mice were sacrificed; a wide area surrounding the skin lesions was excised, spleens were removed, and organs were homogenized in 10 or 1 ml of sterile PBS, respectively. Aliquots were plated and streptococcal colonies were counted. The Institutional Ethics Committee for animal care approved all animal procedures (approval number MD 79.17-4).
GAS of M1 and M3 serotypes are commonly associated with invasive disease and NF, and each lack the SilCR gene in their locus. […]

GAS strain JS95 [3] = test: Murine model of invasive soft-tissue infection: survival and skin lesions after subcutaneous challenge with JS95; format: in vivo, Group A Streptococcus (GAS)
Procedure: as §1
Therefore, the inventors next tested the peptide effect on virulence of the highly invasive strain of the invention. A 17 amino acid peptide, corresponding to the amino acid sequence encoded by the SilCR ORF, was synthesized and purified. Mice were challenged with the highly virulent strain (JS95) in the presence and absence of the 17 amino acid synthetic peptide DIFKLVIDHISMKARKK (also denoted by SEQ ID NO: 32), of a 70% purity.
The ability of the peptide to protect mice inoculated with increasing doses of the bacteria ranging from 10^7 to 10^10 CFU was next examined. […] Mice challenged with a low dose of 10^7 CFU, in the absence of the peptide, died within 4 days after challenge. […] Results were consistent even after 21 days of follow up (data not shown).
Mice were injected under the surface of the skin with 2×10^8 of M14 GAS strain, JS95, without (FIG. 8A) or with 25 μg of the highly purified (90% purity) 17 amino acid peptide (SEQ ID NO: 32) (FIG. 8B).
In order to examine the ability of the 17 amino acid peptide (SEQ ID NO: 32) to protect against bacterial challenge, mice were injected with 200 μg of this peptide 24 hours prior to bacterial challenge. As shown by FIG. 9, the 17 amino acid peptide protects 50% of the mice when injected 24 hours before bacterial challenge of 4×10^8 CFU of JS95 strain.

[4] = peptide of 90% purity mixed with 10^8 CFU JS95, subcutaneous, FIG. 6

DIFKLVIDHISMKARKK (SilCR peptide) [17 amino acid synthetic peptide, predicted mature form of the pheromone peptide encoded by the SilCR ORF; used at 70% or 90% purity]
inhibition of GAS growth (GAS strain JS95 [1]; THY medium and blood agar plates): does not inhibit GAS growth
bacterial growth around disk (GAS strain JS95 [1]; disks with peptide up to 200 μg on blood-agar plate, 1000-1500 CFU JS95, 37° C. 16 hours, FIG. 10): bacterial growth was observed
lesions (M3 strain): reduced lesions
neutrophil recruitment [2]: improved neutrophil recruitment
amount of surface expressed C5a peptidase (C5a peptidase): did not observe any change
lesion size and duration (GAS M1 strain 340): significantly reduced size and duration
protection of mice (survival) (GAS strain JS95 [3]; 3 μg of the 90% purified peptide, JS95 challenge as high as 10^10 CFU, FIG. 16A): protected mice
survival of mice (GAS strain JS95 [3]; 25 μg peptide (90% purity) with 2×10^8 JS95 under the surface of the skin, FIG. 8): all mice of this group survived
skin lesion (GAS strain JS95 [3]; 25 μg peptide (90% purity) with 2×10^8 JS95 under the surface of the skin, FIG. 8B, 8D): small abscess surrounded by a normal skin
protection of mice (survival) (GAS strain JS95 [3]; 100 μg peptide (70% purity) injected together with 10^7 CFU JS95, FIG. 5): partial protection
mice protected (GAS strain JS95 [3]; 200 μg peptide (70% pure) injected 24 hours before challenge with 4×10^8 CFU JS95, FIG. 9): 50%
protection of mice (survival) (GAS strain JS95 [3]; 200 μg peptide (70% pure), challenge with 10^7 and up to 10^9 CFU JS95, FIG. 7): completely protected
deaths of mice (GAS strain JS95 [3]; 200 μg peptide (70% pure), challenge with 10^10 CFU JS95, FIG. 7): only one mouse died
protection of mice (survival) (GAS strain JS95 [3]; 200 μg peptide (70% purity) injected together with 10^7 CFU JS95, FIG. 5): complete protection
lesions of mice (GAS strain JS95 [3]; challenged with JS95 and SilCR, compared with JS95 alone, FIG. 8B vs 8A): significantly smaller, less necrotic and superficial, with defined borders
dose dependence of protection of mice (GAS strain JS95 [3]; peptide of 70% purity, 10^7 CFU JS95, FIG. 5): dose-dependent
peptide dose at which the protective effect is evident (GAS strain JS95 [3]; [4]): 3 µg
peptide dose reaching plateau level of protection (GAS strain JS95 [3]; [4]): 50 µg
protection of mice when administered at a site distant to the bacterial challenge (GAS strain JS95 [3]; simultaneously administered at a distant site): nor did it protect mice
